{"source": "patent US8802895B2", "about": "“Amide derivatives of benzene-sulfonanilide, pharmaceutical composition thereof and method for cancer treatment using the same” (Cleveland State University, priority 2010, dated 2014)", "assay_type_in_all_cases": "cell-based", "key": {"[1]": {"test_system": "HCT-116", "assay": "NCIDTP 60 cancer cell lines screening, Colon Cancer panel", "details": "Homo sapiens"}, "[2]": {"test_system": "OVCAR-8", "assay": "NCIDTP 60 cancer cell lines screening, Ovarian Cancer panel"}, "[3]": {"test_system": "ACHN", "assay": "NCIDTP 60 cancer cell lines screening, Renal Cancer panel"}, "[4]": {"test_system": "SNB-19", "assay": "NCIDTP 60 cancer cell lines screening, CNS Cancer panel"}, "[5]": {"test_system": "CCRF-CEM", "assay": "NCIDTP 60 cancer cell lines screening, Leukemia panel"}, "[6]": {"test_system": "SNB-75", "assay": "NCIDTP 60 cancer cell lines screening, CNS Cancer panel"}, "[7]": {"test_system": "RPMI-8226", "assay": "NCIDTP 60 cancer cell lines screening, Leukemia panel"}, "[8]": {"test_system": "HCC-2998", "assay": "NCIDTP 60 cancer cell lines screening, Colon Cancer panel"}, "[9]": {"test_system": "COLO 205", "assay": "NCIDTP 60 cancer cell lines screening, Colon Cancer panel"}, "[10]": {"test_system": "SF-539", "assay": "NCIDTP 60 cancer cell lines screening, CNS Cancer panel"}}, "data": [{"smiles": "Cc1ccc(C)c(COc2cc(NC(=O)c3ccc4c(c3)OCO4)ccc2N(C)S(C)(=O)=O)c1", "note": "[Compound #10, Benzo[1,3]dioxole-5-carboxylic acid [3-(2,5-dimethyl-benzyloxy)-4-(methanesulfonyl-methyl-amino)-phenyl]-amide]", "values": [{"measurement": "GI50", "setting": "[1]; HCT-116", "value": 75.3, "unit": "nM"}, {"measurement": "CC50", "setting": "[1]; HCT-116, read-out: LC50", "value": "> 100000", "unit": "nM"}, {"measurement": "GI50", "setting": "[2]; Homo sapiens, OVCAR-8", "value": 265, "unit": "nM"}, {"measurement": "CC50", "setting": "[2]; Homo sapiens, OVCAR-8, read-out: LC50", "value": "> 100000", "unit": "nM"}, {"measurement": "TGI", "setting": "[2]; OVCAR-8", "value": ">1.00E−4", "unit": "Molar"}, {"measurement": "Percent Growth", "setting": "[2]; OVCAR-8, Log10 Concentration −4.0 Molar", "value": 6, "unit": "%"}, {"measurement": "Percent Growth", "setting": "[2]; OVCAR-8, Log10 Concentration −5.0 Molar", "value": 8, "unit": "%"}, {"measurement": "Percent Growth", "setting": "[2]; OVCAR-8, Log10 Concentration −6.0 Molar", "value": 10, "unit": "%"}, {"measurement": "Percent Growth", "setting": "[2]; OVCAR-8, Log10 Concentration −7.0 Molar", "value": 80, "unit": "%"}, {"measurement": "Percent Growth", "setting": "[2]; OVCAR-8, Log10 Concentration −8.0 Molar", "value": 94, "unit": "%"}, {"measurement": "TGI", "setting": "[3]", "value": ">1.00E−4", "unit": "Molar"}, {"measurement": "GI50", "setting": "[3]; Homo sapiens", "value": 687, "unit": "nM"}, {"measurement": "CC50", "setting": "[3]; Homo sapiens, read-out: LC50", "value": "> 100000", "unit": "nM"}, {"measurement": "Percent Growth", "setting": "[3]; Log10 Concentration −4.0 Molar", "value": 23, "unit": "%"}, {"measurement": "Percent Growth", "setting": "[3]; Log10 Concentration −5.0 Molar", "value": 26, "unit": "%"}, {"measurement": "Percent Growth", "setting": "[3]; Log10 Concentration −6.0 Molar", "value": 45, "unit": "%"}, {"measurement": "Percent Growth", "setting": "[3]; Log10 Concentration −7.0 Molar", "value": 75, "unit": "%"}, {"measurement": "Percent Growth", "setting": "[3]; Log10 Concentration −8.0 Molar", "value": 95, "unit": "%"}, {"measurement": "GI50", "setting": "[4]; Homo sapiens, SNB-19", "value": 537, "unit": "nM"}, {"measurement": "CC50", "setting": "[4]; Homo sapiens, SNB-19, read-out: LC50", "value": "> 100000", "unit": "nM"}, {"measurement": "TGI", "setting": "[4]; SNB-19", "value": ">1.00E−4", "unit": "Molar"}, {"measurement": "Percent Growth", "setting": "[4]; SNB-19, Log10 Concentration −4.0 Molar", "value": 39, "unit": "%"}, {"measurement": "Percent Growth", "setting": "[4]; SNB-19, Log10 Concentration −5.0 Molar", "value": 30, "unit": "%"}, {"measurement": "Percent Growth", "setting": "[4]; SNB-19, Log10 Concentration −6.0 Molar", "value": 36, "unit": "%"}, {"measurement": "Percent Growth", "setting": "[4]; SNB-19, Log10 Concentration −7.0 Molar", "value": 89, "unit": "%"}, {"measurement": "Percent Growth", "setting": "[4]; SNB-19, Log10 Concentration −8.0 Molar", "value": 93, "unit": "%"}, {"measurement": "TGI", "setting": "[5]", "value": ">1.00E−4", "unit": "Molar"}, {"measurement": "GI50", "setting": "[5]; Homo sapiens", "value": 48.5, "unit": "nM"}, {"measurement": "CC50", "setting": "[5]; Homo sapiens, read-out: LC50", "value": "> 100000", "unit": "nM"}, {"measurement": "Percent Growth", "setting": "[5]; Log10 Concentration −4.0 Molar", "value": 16, "unit": "%"}, {"measurement": "Percent Growth", "setting": "[5]; Log10 Concentration −5.0 Molar", "value": 14, "unit": "%"}, {"measurement": "Percent Growth", "setting": "[5]; Log10 Concentration −6.0 Molar", "value": 13, "unit": "%"}, {"measurement": "Percent Growth", "setting": "[5]; Log10 Concentration −7.0 Molar", "value": 31, "unit": "%"}, {"measurement": "Percent Growth", "setting": "[5]; Log10 Concentration −8.0 Molar", "value": 92, "unit": "%"}, {"measurement": "GI50", "setting": "[6]; Homo sapiens, SNB-75", "value": 266, "unit": "nM"}, {"measurement": "CC50", "setting": "[6]; Homo sapiens, SNB-75, read-out: LC50", "value": "> 100000", "unit": "nM"}, {"measurement": "Percent Growth", "setting": "[6]; SNB-75, Log10 Concentration −4.0 Molar", "value": 3, "unit": "%"}, {"measurement": "Percent Growth", "setting": "[6]; SNB-75, Log10 Concentration −5.0 Molar", "value": "−6", "unit": "%"}, {"measurement": "Percent Growth", "setting": "[6]; SNB-75, Log10 Concentration −6.0 Molar", "value": "−5", "unit": "%"}, {"measurement": "Percent Growth", "setting": "[6]; SNB-75, Log10 Concentration −7.0 Molar", "value": 91, "unit": "%"}, {"measurement": "Percent Growth", "setting": "[6]; SNB-75, Log10 Concentration −8.0 Molar", "value": 86, "unit": "%"}, {"measurement": "GI50", "setting": "[7]; Homo sapiens, RPMI-8226", "value": 290, "unit": "nM"}, {"measurement": "CC50", "setting": "[7]; Homo sapiens, RPMI-8226, read-out: LC50", "value": "> 100000", "unit": "nM"}, {"measurement": "Percent Growth", "setting": "[7]; RPMI-8226, Log10 Concentration −4.0 Molar", "value": 6, "unit": "%"}, {"measurement": "Percent Growth", "setting": "[7]; RPMI-8226, Log10 Concentration −5.0 Molar", "value": "−2", "unit": "%"}, {"measurement": "Percent Growth", "setting": "[7]; RPMI-8226, Log10 Concentration −6.0 Molar", "value": 14, "unit": "%"}, {"measurement": "Percent Growth", "setting": "[7]; RPMI-8226, Log10 Concentration −7.0 Molar", "value": 81, "unit": "%"}, {"measurement": "Percent Growth", "setting": "[7]; RPMI-8226, Log10 Concentration −8.0 Molar", "value": 93, "unit": "%"}, {"measurement": "TGI", "setting": "[8]; HCC-2998", "value": "3.92E−7", "unit": "Molar"}, {"measurement": "Percent Growth", "setting": "[8]; HCC-2998, Log10 Concentration −4.0 Molar", "value": "−64", "unit": "%"}, {"measurement": "Percent Growth", "setting": "[8]; HCC-2998, Log10 Concentration −5.0 Molar", "value": "−61", "unit": "%"}, {"measurement": "Percent Growth", "setting": "[8]; HCC-2998, Log10 Concentration −6.0 Molar", "value": "−40", "unit": "%"}, {"measurement": "Percent Growth", "setting": "[8]; HCC-2998, Log10 Concentration −7.0 Molar", "value": 58, "unit": "%"}, {"measurement": "Percent Growth", "setting": "[8]; HCC-2998, Log10 Concentration −8.0 Molar", "value": 99, "unit": "%"}, {"measurement": "CC50", "setting": "[8]; Homo sapiens, HCC 2998, read-out: LC50", "value": 2970, "unit": "nM"}, {"measurement": "GI50", "setting": "[8]; Homo sapiens, HCC-2998", "value": 120, "unit": "nM"}, {"measurement": "TGI", "setting": "[9]; COLO 205", "value": "1.07E−6", "unit": "Molar"}, {"measurement": "Percent Growth", "setting": "[9]; COLO 205, Log10 Concentration −4.0 Molar", "value": "−33", "unit": "%"}, {"measurement": "Percent Growth", "setting": "[9]; COLO 205, Log10 Concentration −5.0 Molar", "value": "−41", "unit": "%"}, {"measurement": "Percent Growth", "setting": "[9]; COLO 205, Log10 Concentration −6.0 Molar", "value": 1, "unit": "%"}, {"measurement": "Percent Growth", "setting": "[9]; COLO 205, Log10 Concentration −7.0 Molar", "value": 99, "unit": "%"}, {"measurement": "Percent Growth", "setting": "[9]; COLO 205, Log10 Concentration −8.0 Molar", "value": 105, "unit": "%"}, {"measurement": "GI50", "setting": "[9]; Homo sapiens, COLO 205", "value": 318, "unit": "nM"}, {"measurement": "CC50", "setting": "[9]; Homo sapiens, COLO 205, read-out: LC50", "value": "> 100000", "unit": "nM"}, {"measurement": "GI50", "setting": "[10]; Homo sapiens, SF-539", "value": 125, "unit": "nM"}, {"measurement": "CC50", "setting": "[10]; Homo sapiens, SF-539, read-out: LC50", "value": "> 100000", "unit": "nM"}, {"measurement": "Percent Growth", "setting": "[10]; SF-539, Log10 Concentration −5.0 Molar", "value": "−10", "unit": "%"}, {"measurement": "Percent Growth", "setting": "[10]; SF-539, Log10 Concentration −6.0 Molar", "value": "−10", "unit": "%"}, {"measurement": "Percent Growth", "setting": "[10]; SF-539, Log10 Concentration −7.0 Molar", "value": 56, "unit": "%"}, {"measurement": "Percent Growth", "setting": "[10]; SF-539, Log10 Concentration −8.0 Molar", "value": 91, "unit": "%"}]}]}
